Reference: patent publication US6947790B2, “Neurocognitive function EEG measurement method and system” (priority 2000, dated 2005)
Read-outs that look alike come from different tables or passages of the source.

Tests used:
[1] = system: children with ADHD; assay: Experiment 9: spatial WM task performance; assay type: in vivo, human; conditions: medicated vs unmedicated state; Dexedrine 20 mg, methylphenidate 10 mg
Text: Experiment. Participants (a total of N=14, evenly divided between boys and girls) were referred to this study by local ADHD specialists. All participants had been diagnosed with the combined subtype of ADHD and were currently undergoing treatment with stimulant medication. Inclusion criteria include age 8-12 years, no mental retardation or neurological impairment, and full-scale IQ in the normal range as measured by the WISC-III (Wechsler, 1991). Participants were paid $10/hour for their participation, and were reimbursed for transportation costs. To increase motivation, the children were also rewarded with toys for good performance.
(§1) EEG and behavioral data were collected while the children performed low load and high load versions of the spatial WM task described above. […] Participants were tested on each of three occasions at the same time of day with a week between sessions. The first occasion was an orientation and training session in which subjects learned and practiced the tasks until performance reached asymptote. On the other occasions they were tested either while medicated or while abstaining from their normal dose of medication, with order of treatment counterbalanced across subjects. […]

[2] = system: children with ADHD; assay: Experiment 9: EEG and ERP; assay type: in vivo, human
Method: as §1, with “subjects. A scientist not otherwise involved with the study maintained the schedule of medication and no-medication days so that the research assistant performing the testing and preliminary analyses was blind to medication status. Data from the orientation day was not included in formal analyses. On the other days subjects first performed a single 23-trial block of each of the task conditions as a warm-up procedure. They then performed 4 more 23-trial blocks of each test version in randomized order.” for “subjects.”
In each session, multi-channel EEG was recorded from multiple “10-10 System” scalp locations (bandpass 0.1-100 Hz, 256 Hz sampling rate, linked mastoid reference) using a custom-made electrode cap. EOG was recorded from above and below the left eye, and from outer canthus of each eye. […]

[3] = system: healthy adults; assay: Experiment 1: n-back working memory task performance; assay type: in vivo, human; conditions: for Accuracy in working memory task vs placebo / Reaction time in working memory task vs placebo: low load and high load tasks
Text: Subjects performed two difficulty levels of a continuous performance, n-back working memory task, versions of which we have employed in many other EEG studies. In this task, subjects were required to compare the spatial location of the current stimulus with that of one presented previously. Briefly, single capital letter stimuli, drawn randomly from a set of twelve, were presented for 200 msec once every 4.5 sec on a computer monitor. At 1.3 sec prior to stimulus onset, a warning cue (a small “x”) appeared in the center of the screen for 200 msec. The letter stimulus occurred 1.3 sec after the cue in one of twelve possible locations on the monitor. The identity of the letter and its spatial position varied randomly from trial to trial. A small fixation dot was continuously present at the center of the screen. In a low load version of the task, subjects were required to match the position of the current stimulus with the position of the very first stimulus presented in the block. In a high load version of the task, subjects compared the current stimulus with that presented two trials previously. In this version subjects were required to remember two positions (and their sequential order) for the duration of two trials (nine seconds), and to update that information on each subsequent trial. In both versions of the task, stimuli were presented in blocks of 53 trials (the first three trials were warm-up trials and were discarded from analysis). Matches occurred randomly on 50% of the trials. Subjects were instructed to respond as quickly and as accurately as possible.
(§2) Each subject participated in […] sessions. The first session was a practice session in which subjects learned to perform the working memory tasks. After training, all subjects participated in 4 sessions, separated by at least one week. […] The four drug sessions were conducted according to a double blind, placebo-controlled, randomized, counterbalanced, crossover design. In each session, subjects consumed two pills (unmarked gelatin capsules) and a mixed drink. […] The pills were given with a 500 cc drink containing either 0.88 g/kg 95% ethanol mixed in fruit juice (adequate to produce an average peak blood alcohol content (BAC) of 0.08), or containing 495 cc of fruit juice with 5 cc of alcohol floated on top to mimic the smell and taste of the treatment drink.
(§3) Each drug session involved a baseline recording before drug administration. This was followed by four post-drug recording intervals, each lasting approximately 40 minutes. The first interval began 0.5 hrs after drug ingestion; the remaining three intervals occurred hourly thereafter. A scientist not otherwise involved in the experiment administered a Breathalyzer test at the beginning of each interval. Subjects also completed the Karolinska and Stanford sleepiness scales at each test period.
(§4) EEG was continuously recorded from 28 scalp electrodes using a digitally linked-mastoids reference. EOG was recorded from electrodes placed above and below one eye, and at the other canthi of each eye. Physiological signals were band-pass filtered at 0.01 to 100 Hz and sampled at 256 Hz. Automated artifact detection was followed by application of adaptive eye contaminant removal filters. The data were then visually inspected and data segments containing possible residual artifacts were eliminated from subsequent analyses. To examine the effects of the pharmacological interventions on individual EEG or behavioral variables, univariate repeated measures analyses of variance (ANOVAs) were used to compare data from each of the three treatment conditions with the placebo condition.

[4] = system: healthy elderly subjects; assay: Experiment 8: WM and ITM task performance in elderly; assay type: in vivo, human
[5] = system: healthy elderly subjects; assay: Experiment 8: resting and task-related EEG and ERP in elderly; assay type: in vivo, human
[6] = system: healthy adults; conditions: for Delta band power during resting conditions vs placebo / Theta band power during resting conditions vs placebo: both resting conditions; for Parietal alpha during task performance vs placebo: both task conditions
Method: as §3, §4
For neurophysiological features, average power was extracted from individual spectral bands at individual electrode sites, and then compared across test conditions. Decisions as to which parameters to extract from the spectra were based on the results of prior studies. For the task related EEG, past studies indicate that the frontal midline theta rhythm and the parietal alpha rhythm are sensitive to variations in the attentional demands of tasks, and, in particular, to the increase in difficulty in the working memory tasks employed here. For the EEG recorded under passive resting conditions, past studies indicate that activity in the delta and theta bands at posterior sites, and the alpha rhythm measured over the occipital region, are highly sensitive to variations in alertness and arousal. Each of the individual features was compared between placebo and each drug condition in univariate ANOVAs with repeated measures.

[7] = system: healthy elderly subjects; assay: Experiment 8: subjective sleepiness in elderly (Karolinska sleepiness scale)
[8] = system: healthy adults; assay: Experiment 2: Neurocognitive Function Change (NCFC) index; assay type: in vivo, human; conditions: for NCFC index change from pre-medication baseline: 16 subjects, t1-t4
Text: In this hybrid approach, multiple if-then rules gleaned from expert knowledge are applied to data to produce many low-level decisions about the direction of a change between two states. These local decisions are made with respect to single data parameters and the output of these rule-based functions serve as the inputs to a combinatorial network that in turn produces a single summary index of the direction and magnitude of change of neurocognitive function from a baseline state to a test state. As with a knowledgeable human expert assessing an ambiguous problem, decisions about the direction and severity of a change are based on consideration of a variety of pieces of diagnostic evidence, no one of which is central to the overall decision.
The output from the algorithm is the composite of three sub indices. The Behavioral Performance sub index incorporates measures of psychomotor speed and accuracy during task performance. The Neurophysiological Cognitive sub index incorporates attention-related EEG variables recorded during task performance (e.g. parameters of attention-related ERP components such as P300 and spectral measures of task load-related EEG modulation). The Neurophysiological Alertness sub index incorporates alertness-related physiological variables (e.g. measures of low frequency EEG activity and slow, rolling eye movement activity) recorded during passive resting conditions. The composite Neurocognitive Function Change (NCFC) index provides a summary score indicating direction and degree of change in neurocognitive status from a baseline state. In FIG. 6, each time point reflects change from the pre-medication baseline at t0 . […] In addition to the summary NCFC score presented in FIG. 6, consideration of the output of the sub indices can also provide specific information concerning the manner in which neurocognitive function has changed from baseline. […]

[9] = average
Method: as §2, §3

[10] = system: healthy adults; assay: Experiment 1: subjective sleepiness ratings (Karolinska Sleepiness Scale); assay type: in vivo, human; conditions: 50 mg diphenhydramine, 200-mg caffeine or 0.88 g/kg ethanol, four post-treatment intervals
Method: as §2, §3

Row | SMILES | Working memory task performance in an individual subject [1] | Accuracy in working memory task vs placebo [3] | Reaction time in working memory task vs placebo [3] | Frontal midline theta rhythm during task performance vs placebo [6] | Delta band power during resting conditions vs placebo [6] | Theta band power during resting conditions vs placebo [6] | NCFC index change from pre-medication baseline [8] | Direction of significant (p < .05) change in spectral power (vs. placebo): Oz alpha ([6]; Resting EEG Eyes Closed) | Direction of significant (p < .05) change in spectral power (vs. placebo): Pz delta ([6]; Resting EEG Eyes Closed) | Direction of significant (p < .05) change in spectral power (vs. placebo): Pz theta ([6]; Resting EEG Eyes Closed) | Direction of significant (p < .05) change in spectral power (vs. placebo): Oz alpha ([6]; Resting EEG Eyes Open) | Direction of significant (p < .05) change in spectral power (vs. placebo): Pz delta ([6]; Resting EEG Eyes Open) | Direction of significant (p < .05) change in spectral power (vs. placebo): Pz theta ([6]; Resting EEG Eyes Open) | Direction of significant (p < .05) change in spectral power (vs. placebo): Pz alpha ([6]; Task EEG High Load) | Direction of significant (p < .05) change in spectral power (vs. placebo): aFz theta ([6]; Task EEG High Load) | Direction of significant (p < .05) change in spectral power (vs. placebo): Pz alpha ([6]; Task EEG Low Load) | Direction of significant (p < .05) change in spectral power (vs. placebo): aFz theta ([6]; Task EEG Low Load) | Parietal alpha during task performance vs placebo [6] | Subjective sleepiness relative to placebo [10] | further results
1 | COC(=O)C(c1ccccc1)C1CCCCN1 (stereo not drawn) [methylphenidate] | markedly better in the medicated state |  |  |  |  |  |  |  |  |  |  |  |  |  |  |  |  |  |  | P300 amplitude in an individual subject ([2]; methylphenidate 10 mg): larger in the medicated condition
2 | CN(C)CCOC(c1ccccc1)c1ccccc1 [diphenhydramine] |  | less accurately | significantly more slowly | reduction in power for the frontal midline theta rhythm in the high load task only | increase in power in the delta | trend towards increasing |  |  |  |  |  |  |  |  |  |  |  |  |  | Time of nadir of task performance ([3]; post drug, third post-ingestion interval): 2.5 to 3 h; ITM task RT and word recognition accuracy [4]: did not show significant effects of diphenhydramine; WM task performance [4]: did not significantly affect task performance; Amplitude of posterior P200 in ITM task [5]: larger after diphenhydramine ingestion than after placebo ingestion; N160 and P350 ERP in WM task ([5]; low and high load tasks): significantly smaller following diphenhydramine ingestion than placebo; Resting EEG delta and theta power ([5]; posterior regions): increase in power in the delta and theta bands over posterior regions; Alpha band power, eyes-closed resting condition vs placebo [6]: attenuation of power in the alpha band in the eyes-closed resting condition; Alpha band power, eyes-open resting condition vs placebo [6]: no significant change in power during the eyes-open resting condition; Slow eye movement activity during resting conditions ([6]; discussion): increase in the incidence of slow eye movement activity; Time of greatest subjective sleepiness ([7]; after ingestion): 2.5 h; Subjective sleepiness vs placebo ([7]; elderly, 50 mg): significantly sleepier
3 | C[C@H](N)Cc1ccccc1 [Dexedrine] | markedly better in the medicated state |  |  |  |  |  |  |  |  |  |  |  |  |  |  |  |  |  |  | Alpha rhythm, high load vs low load, in an individual subject ([2]; Dexedrine 20 mg): larger difficulty-related differences
4 | CCO [alcohol, ethanol] |  | no significant main effects | slightly faster in the high load task, and slightly slower in the low load task | increased in the amplitude | increased the power | increased the power | similar, though less extreme, pattern of impairment | ▬ | ▴ | ▴ | ▬ | ▴ | ▴ | ▴ | ▴ | ▴ | ▴ | increased in the amplitude | significant increase in subjective sleepiness relative to placebo at the 1.5-2 hr, 2.5-3 hr and 3.5-4 hr post-treatment intervals | NCFC sub index most affected ([8]; in vivo): relative greater effect on the Neurophysiological Attention sub index; peak BAC ([9]; first post-treatment interval): 0.08; BAC ([9]; last post-treatment interval): 0.03
5 | Cn1c(=O)c2c(ncn2C)n(C)c1=O [caffeine] |  | No significant behavioral differences | No significant behavioral differences |  |  |  | little change from baseline | ▬ | ▬ | ▬ | ▬ | ▬ | ▬ | ▾ | ▬ | ▾ | ▬ | significant reduction in alpha band power at parietal sites | did not produce subjective sleepiness ratings significantly different from placebo | Resting EEG data relative to placebo [6]: did not produce significant differences in resting EEG data relative to placebo
